System: rat glomerular nephritis
Assay: Action on rat glomerular nephritis (nephrotoxic serum-induced nephritis; urinary protein excretion)
Format: in vivo
Conditions: male WKY rats, NTS-induced nephritis; 30 mg/kg/10 ml orally twice a day for 8 days; 24 h urine collected after 7 days
Experimental: (Action on rat glomerular nephritis)
Rabbits were immunized several times with a renal glomerular basement membrane fraction obtained from WKY strain rats and an adjuvant. Thereafter, blood was collected to obtain a nephrotoxic serum (NTS). This NTS was diluted by 50 times with physiological saline, and the diluted NTS was once administered intravenously to male WKY rats of 8 weeks old in a dose of 2.5 ml per 1 kg of body weight to induce nephritis. In normal group of rats, the same volume of physiological saline was intravenously administered.
In the experiment, one group consisted of 6 rats, and each compound to be tested was suspended in water with small amount of Tween 80 (trade name, produced by Nacalai Tesque Co.), and was orally administered to the test group of rats at a dose of 30 mg/kg/10 ml twice a day for 8 days. In normal group and control group of rats, the same volume of water was orally administered instead of the test compound. After 7 days, the rats were placed in metabolic cages and urine was collected for 24 hours. Concentrations of protein in urine were measured by the sulfosalicylic acid method to determine amounts of protein excreted in the urine (mg/day). The inhibition rate of excretion of protein were calculated by the following equation. [formula]

SMILES	Inhibition rate (of excretion of protein in urine)
C=CS(=O)(=O)NCC1Cc2ccc(-c3ccc(=O)[nH]n3)cc2C1 (stereo not drawn) [Example 4]	61.5%
CCS(=O)(=O)NCCC1Cc2ccc(-c3ccc(=O)[nH]n3)cc2C1 (stereo not drawn) [Example 6]	65.1%
CCCS(=O)(=O)NCCC1Cc2ccc(-c3ccc(=O)[nH]n3)cc2C1 (stereo not drawn) [Example 7]	77.2%
C=CS(=O)(=O)NCCC1Cc2ccc(-c3ccc(=O)[nH]n3)cc2C1 (stereo not drawn) [Example 8]	71.6%
C=CS(=O)(=O)NCCCCC1Cc2ccc(-c3ccc(=O)[nH]n3)cc2C1 (stereo not drawn) [Example 12]	67.5%
C=CS(=O)(=O)NCCCC1Cc2ccc(-c3ccc(=O)[nH]n3)cc2C1 (stereo not drawn) [Example 19]	91.8%
